# Where two headings read alike, the source gives them in different places.
# Tests used:
# [1] = Brain pharmacokinetics in mice; conditions: mouse
# [2] = Plasma pharmacokinetics in mice
# [3] = Plasma pharmacokinetics in rats; conditions: rats
# mice = conditions: mouse, cited from earlier work
# [4] = Sprague Dawley, rat, in vivo
# [5] = Sprague Dawley, rat, in vivo; remark: listed apart in the source
# [6] = test system: male adult Sprague-Dawley rats; assay: 6 Hz 80 V seizure test in rats; format: in vivo, rat; conditions: for Seizure protection (in words): rats, any time-point
# [7] = CF-1, mouse, in vivo
# rats = conditions: rat, minimum motor impairment test, i.p.; cited from earlier work
# in vivo [8] = conditions: Sprague Dawley, rat, ip
# in vivo [9] = conditions: Sprague Dawley, rat, ip, Brain t1/2
# [10] = CF-1, mouse, in vivo; remark: listed apart in the source
# in vivo [11] = conditions: CF-1, mouse, ip; for half-life: Plasma t1/2
# adult male CF-1 mice [12] = assay: 6 Hz 44 mA seizure test in mice; format: in vivo, mouse
# adult male CF-1 mice [13] = conditions: mouse, 6 Hz 44 mA, i.p.; cited from earlier work
# [14] = test system: adult Sprague-Dawley rats; conditions: rat, MES, i.p.; cited from earlier work
# [15] = test system: adult Sprague-Dawley rats; assay: Maximal electroshock; format: in vivo, rat; conditions: MES; for Efficacy in rats (number seizure protected /number tested): low dose i.p. (CLB 17, CBZ 3, VPA 165 mg/kg); for Seizure protection (in words): rats
# in vivo [16] = conditions: CF-1, mouse, ip
# [17] = Brain pharmacokinetics in rats; conditions: rats, after CBZ i.p.
# [18] = metabolite after high parent dose i.p.: CLB 17, CBZ 40 mg/kg
# [19] = metabolite after low parent dose i.p.: CLB 7, CBZ 7 mg/kg
# [20] = mouse, metabolite after high parent dose i.p.: CLB 17, CBZ 40 mg/kg
# [21] = mouse, metabolite after low parent dose i.p.: CLB 7, CBZ 7 mg/kg
# [22] = high dose i.p. (CLB 17, VPA 570, LEV 500 mg/kg), time test 0.25 h
# [23] = high dose i.p. (CLB 17, VPA 570, LEV 500 mg/kg), time test 0.5 h
# [24] = high dose i.p. (CLB 17, VPA 570, LEV 500 mg/kg), time test 1 h
# [25] = high dose i.p. (CLB 17, VPA 570, LEV 500 mg/kg), time test 2 h
# [26] = high dose i.p. (CLB 17, VPA 570, LEV 500 mg/kg), time test 4 h
# [27] = high dose i.p. (CLB 17, VPA 570, LEV 500 mg/kg), time test 8 h
# [28] = low dose i.p. (CLB 7, VPA 260, LEV 20 mg/kg), time test 0.25 h
# [29] = low dose i.p. (CLB 7, VPA 260, LEV 20 mg/kg), time test 0.5 h
# [30] = low dose i.p. (CLB 7, VPA 260, LEV 20 mg/kg), time test 1 h
# [31] = low dose i.p. (CLB 7, VPA 260, LEV 20 mg/kg), time test 2 h
# [32] = low dose i.p. (CLB 7, VPA 260, LEV 20 mg/kg), time test 4 h
# [33] = low dose i.p. (CLB 7, VPA 260, LEV 20 mg/kg), time test 8 h
# [34] = mice, low dose i.p. (VPA 260, LEV 20 mg/kg)
compound,measurement,setting,value
"O=C1CC(=O)N(c2ccccc2)c2cc(Cl)ccc2N1 [NCLB, N-desmethyl clobazam]",Brain/Plasma AUC ratio of active metabolite,[1]; [18],1.64
same,Brain/Plasma AUC ratio of active metabolite,[1]; [19],1.88
same,NCLB concentrations relative to CLB,"[2]; mice, after CLB i.p., fold greater than CLB",approximately 10 fold
same,Plasma AUC of NCLB relative to CLB,"[2]; mouse, after CLB i.p., fold greater than CLB",approximately 10 fold
same,Plasma t1/2 of metabolite,[2]; [20],266 min
same,Plasma t1/2 of metabolite,[2]; [21],385 min
same,NCLB concentrations relative to CLB,"[3]; plasma and brain, after CLB i.p., fold less than CLB",~ 20 fold
"CC[C@@H](C(N)=O)N1CCCC1=O [LEV, levetiracetam]",TD50 - high dose,"mice; rotarod test, i.p.",500 mg/kg
same,Brain Dose Prop (AUC),[4],0.56
same,Brain t1/2,[4]; ip,212 min
same,Plasma Dose Prop (AUC),[5],0.55
same,Plasma Dose Prop (Cmax),[5],0.500
same,Plasma t1/2,[5]; ip,191 min
same,Efficacy in rats (number seizure protected /number tested),"[6]; high dose i.p. (LEV 800 mg/kg), time test 0.25 h",0/4
same,Efficacy in rats (number seizure protected /number tested),"[6]; high dose i.p. (LEV 800 mg/kg), time test 0.5 h",0/4
same,Efficacy in rats (number seizure protected /number tested),"[6]; high dose i.p. (LEV 800 mg/kg), time test 1 h",0/4
same,Efficacy in rats (number seizure protected /number tested),"[6]; high dose i.p. (LEV 800 mg/kg), time test 2 h",0/4
same,Efficacy in rats (number seizure protected /number tested),"[6]; high dose i.p. (LEV 800 mg/kg), time test 4 h",0/4
same,Efficacy in rats (number seizure protected /number tested),"[6]; high dose i.p. (LEV 800 mg/kg), time test 8 h",0/4
same,Efficacy in rats (number seizure protected /number tested),"[6]; low dose i.p. (LEV 14 mg/kg), time test 0.25 h",0/4
same,Efficacy in rats (number seizure protected /number tested),"[6]; low dose i.p. (LEV 14 mg/kg), time test 0.5 h",0/4
same,Efficacy in rats (number seizure protected /number tested),"[6]; low dose i.p. (LEV 14 mg/kg), time test 1 h",0/4
same,Efficacy in rats (number seizure protected /number tested),"[6]; low dose i.p. (LEV 14 mg/kg), time test 2 h",0/4
same,Efficacy in rats (number seizure protected /number tested),"[6]; low dose i.p. (LEV 14 mg/kg), time test 4 h",0/4
same,Efficacy in rats (number seizure protected /number tested),"[6]; low dose i.p. (LEV 14 mg/kg), time test 8 h",0/4
same,Seizure protection (in words),[6]; high dose LEV 800 mg/kg i.p.,failed to protect
same,Seizure protection (in words),[6]; low dose LEV 14 mg/kg i.p.,failed to protect
same,Plasma Dose Prop (AUC),[7],1.27
same,Plasma Dose Prop (Cmax),[7],1.00
same,Plasma t1/2,[7]; ip,123 min
same,TD50 - high dose,rats,800 mg/kg
same,half-life,in vivo [8]; Plasma t1/2,370 min
same,half-life,in vivo [9],265 min
same,Brain Dose Prop (AUC),[10],1.03
same,Tmax,in vivo [11],15 min
same,half-life,in vivo [11],103 min
same,Efficacy in mice (number seizure protected/number tested),adult male CF-1 mice [12]; [22],1/4
same,Efficacy in mice (number seizure protected/number tested),adult male CF-1 mice [12]; [23],1/4
same,Efficacy in mice (number seizure protected/number tested),adult male CF-1 mice [12]; [24],1/4
same,Efficacy in mice (number seizure protected/number tested),adult male CF-1 mice [12]; [25],1/4
same,Efficacy in mice (number seizure protected/number tested),adult male CF-1 mice [12]; [26],1/4
same,Efficacy in mice (number seizure protected/number tested),adult male CF-1 mice [12]; [27],0/4
same,Efficacy in mice (number seizure protected/number tested),adult male CF-1 mice [12]; [28],0/4
same,Efficacy in mice (number seizure protected/number tested),adult male CF-1 mice [12]; [29],0/4
same,Efficacy in mice (number seizure protected/number tested),adult male CF-1 mice [12]; [30],0/4
same,Efficacy in mice (number seizure protected/number tested),adult male CF-1 mice [12]; [31],0/4
same,Efficacy in mice (number seizure protected/number tested),adult male CF-1 mice [12]; [32],0/4
same,Efficacy in mice (number seizure protected/number tested),adult male CF-1 mice [12]; [33],0/4
same,Protection against seizures,"adult male CF-1 mice [12]; mice, high-dose LEV (500 mg/kg i.p.), within 4 hrs post-dose",25%
same,Seizure protection (in words),adult male CF-1 mice [12]; [34],did not protect
"CCCC(CCC)C(=O)O [VPA, sodium valproate]",TD50 - high dose,"mice; in vivo, ip",570 mg/kg
same,ED50 - low dose,adult male CF-1 mice [13],260 mg/kg
same,ED50 - low dose,[14],165 mg/kg
same,Brain Dose Prop (AUC),[4],1.84
same,Efficacy in rats (number seizure protected /number tested),[15]; time test 0.25 h,3/4
same,Efficacy in rats (number seizure protected /number tested),[15]; time test 0.5 h,3/4
same,Efficacy in rats (number seizure protected /number tested),[15]; time test 1 h,1/4
same,Efficacy in rats (number seizure protected /number tested),[15]; time test 2 h,0/4
same,Efficacy in rats (number seizure protected /number tested),[15]; time test 4 h,0/4
same,Efficacy in rats (number seizure protected /number tested),[15]; time test 8 h,0/4
same,Seizure protection (in words),"[15]; high dose i.p. (CLB 37, VPA 315 mg/kg)",full to moderate seizure protection
same,Seizure protection (in words),"[15]; low dose i.p. (CLB 17, VPA 165 mg/kg)",moderate protection
same,Plasma Dose Prop (Cmax),[5],0.902
same,Time to total drug elimination (>97% drug eliminated),[5]; ip,less than 4.5 hrs
same,Plasma Dose Prop (Cmax),[7],0.863
same,Tmax,in vivo [8]; Plasma Tmax,15 min
same,Tmax,in vivo [16],30 min
same,Tmax,in vivo [16]; Brain Tmax,15 min
same,half-life,in vivo [16]; Brain t1/2,55.6 min
same,Brain Dose Prop (AUC),[10],2.17
same,Brain t1/2,[10]; ip,76.8 min
same,Tmax,in vivo [11],30 min
same,Tmax,in vivo [11]; Plasma Tmax,15 min
same,half-life,in vivo [11],43.8 min
same,Efficacy in mice (number seizure protected/number tested),adult male CF-1 mice [12]; [22],4/4
same,Efficacy in mice (number seizure protected/number tested),adult male CF-1 mice [12]; [23],4/4
same,Efficacy in mice (number seizure protected/number tested),adult male CF-1 mice [12]; [24],4/4
same,Efficacy in mice (number seizure protected/number tested),adult male CF-1 mice [12]; [25],4/4
same,Efficacy in mice (number seizure protected/number tested),adult male CF-1 mice [12]; [26],0/4
same,Efficacy in mice (number seizure protected/number tested),adult male CF-1 mice [12]; [27],0/4
same,Efficacy in mice (number seizure protected/number tested),adult male CF-1 mice [12]; [28],4/4
same,Efficacy in mice (number seizure protected/number tested),adult male CF-1 mice [12]; [29],3/4
same,Efficacy in mice (number seizure protected/number tested),adult male CF-1 mice [12]; [30],0/4
same,Efficacy in mice (number seizure protected/number tested),adult male CF-1 mice [12]; [31],0/4
same,Efficacy in mice (number seizure protected/number tested),adult male CF-1 mice [12]; [32],0/4
same,Efficacy in mice (number seizure protected/number tested),adult male CF-1 mice [12]; [33],0/4
same,Brain concentration needed for complete seizure protection,"adult male CF-1 mice [12]; mice, comparison of the two VPA dose levels",above 100 ng/mg
same,Seizure protection (in words),"adult male CF-1 mice [12]; mice, high dose i.p. (VPA 570 mg/kg), sustained only within 2 hrs",maximal antiseizure efficacy
same,Seizure protection (in words),adult male CF-1 mice [12]; [34],seizure protection was observed within the first hour
"NC(=O)N1c2ccccc2C2OC2c2ccccc21 (stereo not shown) [CBZE, carbamazepine-10,11-epoxide]",Brain/Plasma AUC ratio of active metabolite,[1]; [18],1.00
same,Brain/Plasma AUC ratio of active metabolite,[1]; [19],1.20
same,Brain half-life of metabolite,[17],approximately 4 hrs
same,Plasma half-life of CBZE relative to CBZ,"[2]; mice, high dose CBZ 40 mg/kg i.p., fold longer than CBZ",~ 3 fold
same,Plasma t1/2 of metabolite,[2]; [20],239 min
same,Plasma t1/2 of metabolite,[2]; [21],72 min
same,CBZE plasma exposures as % of CBZ,[3]; after CBZ i.p.,approximately 70%
same,Plasma half-life of metabolite,[3]; after CBZ i.p.,approximately 4 hrs

# Source: publication PMC9669179 (Epilepsia, 2022)
